Laboratory results: patent US12138301B2, “Compounds including a mutant KRAS sequence and a lipid and uses thereof” (Elicio Therapeutics, Inc., priority 2018, dated 2024)
Entries after “also recorded” stand apart in the source; their conditions may differ.

Legend:
PBMCs/Splenocytes = assay: ICS for IFNγ on PBMCs and ELISpot for IFNγ on splenocytes of immunized HLA-A2.1 transgenic mice (Example 3); assay type: in vivo, B6 HLA-A2.1 Tg mice; conditions: peptide 20 μg s.c., two boosters at two-week intervals, HLA-A2.1 Tg mice
Text: B6 mice transgenic for the human HLA gene, A2.1, were immunized either with the soluble or amphiphile-conjugated forms of the KRas G12D antigen, as well as adjuvant (CpG or aCpG). The A2.1 allele is known to mount responses to the KRas peptides in humans.
The experimental design included the following 4 groups of B6 HLA-A2.1 Tg mice immunized with the listed compounds (n=5 for each group): • 1. KRas wild-type+CpG • 2. KRas 12D+CpG • 3. aKRas 12D+aCpG • 4. No immunization
(§1) The adjuvant as well as peptide stock solutions were dissolved in H2O. Final injections were diluted with 1×PBS.
The aKRas peptides used were 18mer sequences of mutant sequences with a G12D substitution (amino acids 4-21 of wild-type 4 […] (SEQ ID NO:9)). 20 μg in 100 μl were used for each injection.
(§2) The aCpG sequence used was the CpG1826 sequence (5′-[…]-3′; SEQ ID NO:10) with two guanines added at the 5′ end (5′-gg […]-3′; SEQ ID NO:11) at a concentration of 5 nmol for each 100 μl injection.
The vaccine was administered subcutaneously to female mice bilaterally at the tail base at 50 μl per side. Two booster doses were given in two-week intervals.
Intracellular cytokine staining (ICS) analysis for IFNγ on peripheral blood mononuclear cells (PBMCs) and ELISpot analysis for IFNγ on splenocytes was performed, using standard protocols, 7 days after the second and third booster dose, respectively.
PBMCs/Splenocytes (10^6 cells/well and 2×10^6 cells/well) were activated with 5 μg/well of either SEQ ID NO:1 or one of SEQ ID NOS:12-20 as shown below:
Specific mutant peptides are given only to the mice that were immunized with the corresponding 18mer.

splenocytes [1] = assay: ELISpot analysis for IFNγ on splenocytes, higher antigen concentration and bi-weekly or weekly dosing (Example 4); assay type: in vivo, C57BL/6 mice; conditions: peptide 50 μg s.c.; for KRas-specific CD8+ T-cell response (9mers): restimulation with 9mers; for CD8+ or CD4+ T-cell response (18mer): restimulation with 18mer
Description: The concentration of antigen was increased from 20 μg to 50 μg and bi-weekly (bw) or weekly (w) dose intervals were tested.
The experimental design included the following 5 groups of C57BL/6 mice immunized with the listed compounds (n=5 for each group): • 1. KRas 12D+CpG1826 (bw) • 2. KRas 12D+CpG1826 (w) • 3. aKRas 12D+aCpG1826 (bw) • 4. aKRas 12D+aCpG1826 (w) • 5. No immunization
as §1
50 μg in 100 μl were used for each injection.
as §2
Primer immunizations were given subcutaneously (s.c.) into the tail base with one booster dose after 2 weeks.
ELISpot analysis for IFNγ, and CBA (cytometric bead array) analysis for IL6, I-10, IL12, TNFα, IFNγ, and MCP1 was performed on splenocytes, using standard protocols, 7 days after booster dose administration.
Specific mutant peptides were given only to the mice that were immunized with the corresponding 18mer.
Separate plates were prepared for either short (9mer and 10mer) or long (17mer and 18mer) peptide stimulations. Cells from “No immunization” control mice were stimulated with all stimuli.

[2] = test system: KRAS-specific splenic T-cells; assay: Summary of mouse immunogenicity studies: KRAS-specific splenic T-cells by ELISPOT and cytokine bead array (Example 5); assay type: in vivo, C57BL/6 mouse; conditions: subcutaneous administration; identified by ELISPOT and cytokine bead array
splenocytes [3] = assay: ELISpot analysis for IFNγ on splenocytes of immunized mice (Example 1, KRas G12D); assay type: in vivo, C57BL/6 mice; conditions: splenocytes activated with G12D 18mer 5 μg/well
Description: The efficacy of soluble-KRas (KRas) or amphiphile-KRas (aKRas) (FIG. 6) mutant sequences and an amphiphile-CpG adjuvant (aCpG) to elicit an immune response was determined.
The experimental design included the following 4 groups of C57BL16 mice immunized with the listed compounds (n=5 for each group): • 1. KRas G12D+aCpG • 2. aKRas G12D+aCpG • 3. KRas G12D+pIC • 4. No immunization
PolyIC (pIC) was used as a benchmark adjuvant control.
The adjuvant, as well as peptide stock, solutions were dissolved in H2O. Final injections were diluted with 1×PBS (phosphate buffered saline).
The aKRas peptides used were 18mer sequences of mutant sequences with a G12D substitution (amino acids 4-21 of wild-type→YKLVVVGAGGVGKSALTI (SEQ ID NO:9)). 20 μg in 100 μl were used for each injection.
The aCpG sequence used was the CpG1826 sequence (5′-[…]-3′; SEQ ID NO:10) with two guanines added at the 5′ end (5′-gg […]-3′; SEQ ID NO:11) at a concentration of 5 nmol for each 100 μl injection. CpG1826 is an optimal mouse sequence while CpG7909 is optimal for humans and poorly active in mice. CpG1826 and CpG7909 are in the same CpG class (class B) and generally have similar activity profiles in their respective species.
50 μg of pIC were used for each 100 μl injection.
Primer immunizations were given subcutaneously (s.c.) into the tail base (day 0) with one booster dose after 2 weeks (day 14). ELISpot analysis for IFNγ on splenocytes was performed, using standard protocols, […] after booster dose administration (day 21). Splenocytes (10^6 cells/well) were activated with 5 μg/well of G12D sequence 18mer (aa4-21)→YKLVVVGADGVGKSALTI (SEQ ID NO:1).

splenocytes [4] = assay: ELISpot analysis for IFNγ on splenocytes of immunized mice (Example 2, KRas G12R and G12V); assay type: in vivo, C57BL/6 mice; conditions: in combination with aCpG 5 nmol; peptide 20 μg s.c. day 0 + booster d14; splenocytes activated with G12V or G12R 18mer 5 μg/well
Description: as §2

[5] = in combination with aCpG 5 nmol
[6] = in combination with aCpG 5 nmol, peptide 20 μg s.c. tail base day 0 + booster day 14

Substance: DSPE-amido-dPEG24-amido-dPEG24-CYKLVVVGADGVGKSALTI [aKRas G12D]
- KRas-specific CD8+ T-cell response (PBMCs/Splenocytes; [5]): KRas-specific CD8′ T-cell response; also recorded: KRas-specific CD8^+ T-cell response
- KRas-specific CD8+ T-cell response (9mers) (splenocytes [1]; [5]): KRas-specific CD8^+ T-cell response
- CD8+ or CD4+ T-cell response (18mer) (splenocytes [1]; [5]): CD8′ or CD4*T-cell response; also recorded: CD8^+ or CD4^+ T-cell response
- inducing KRAS-specific splenic T-cells in mice [2]: effective
- activation of splenocytes (ELISpot for IFNγ) (splenocytes [3]; [6]): activated splenocytes

Substance: YKLVVVGADGVGKSALTI [soluble KRas G12D]
- KRas-specific CD8+ T-cell response (PBMCs/Splenocytes; in combination with CpG): not
- KRas-specific CD8+ T-cell response (9mers) (splenocytes [1]; in combination with CpG): not
- CD8+ or CD4+ T-cell response (18mer) (splenocytes [1]; in combination with CpG): not
- activation of splenocytes (ELISpot for IFNγ) (splenocytes [3]; [6]): did not
- activation of splenocytes (ELISpot for IFNγ) (splenocytes [3]; in combination with pIC 50 μg, peptide 20 μg s.c. day 0 + booster day 14): did not

Substance: YKLVVVGAGGVGKSALTI [soluble wild-type KRas]
- KRas-specific CD8+ T-cell response (PBMCs/Splenocytes; in combination with CpG): not

Substance: YKLVVVGARGVGKSALTI [soluble KRas G12R]
- activation of splenocytes (ELISpot for IFNγ) (splenocytes [4]): did not

Substance: YKLVVVGAVGVGKSALTI [soluble KRas G12V]
- activation of splenocytes (ELISpot for IFNγ) (splenocytes [4]): did not
